Source: paper PMC12720125 (Redox Biology, 2025)

Experiments:
[1] = biological target: T1, lymphoid-specific helicase (LSH) (Homo sapiens, UniProt Q9NRZ9); assay: KD determination, SPR; format: binding
T1 sequence (Q9NRZ9 1-838): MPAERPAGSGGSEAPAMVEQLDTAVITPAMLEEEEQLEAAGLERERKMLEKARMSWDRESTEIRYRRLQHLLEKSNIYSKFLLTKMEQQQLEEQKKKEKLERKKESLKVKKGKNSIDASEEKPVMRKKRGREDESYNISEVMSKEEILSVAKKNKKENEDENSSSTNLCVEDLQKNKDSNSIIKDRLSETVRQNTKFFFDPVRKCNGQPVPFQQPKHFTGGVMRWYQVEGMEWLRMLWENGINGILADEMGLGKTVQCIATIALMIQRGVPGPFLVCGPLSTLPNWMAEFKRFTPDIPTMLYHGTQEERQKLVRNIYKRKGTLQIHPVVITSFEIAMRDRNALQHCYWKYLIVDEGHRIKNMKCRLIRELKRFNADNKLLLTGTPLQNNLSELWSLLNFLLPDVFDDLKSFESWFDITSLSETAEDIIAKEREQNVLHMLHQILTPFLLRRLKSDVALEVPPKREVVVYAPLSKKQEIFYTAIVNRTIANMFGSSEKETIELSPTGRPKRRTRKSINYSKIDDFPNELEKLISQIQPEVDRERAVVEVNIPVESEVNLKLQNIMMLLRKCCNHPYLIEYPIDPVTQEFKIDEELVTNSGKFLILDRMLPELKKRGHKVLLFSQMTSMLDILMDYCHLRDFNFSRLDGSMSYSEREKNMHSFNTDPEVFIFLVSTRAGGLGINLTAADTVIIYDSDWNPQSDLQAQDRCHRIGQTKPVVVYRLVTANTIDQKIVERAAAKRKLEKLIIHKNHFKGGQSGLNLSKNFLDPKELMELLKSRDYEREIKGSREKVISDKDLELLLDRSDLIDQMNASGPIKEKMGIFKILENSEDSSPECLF

[2] = biological target: T1, lymphoid-specific helicase (LSH); assay: SPR; format: binding

Row | Compound | Kd [1] [µM] | Kd [2] [µM]
1 | C[C@@H]1CC[C@H]2[C@@H](C)C(=O)O[C@@H]3O[C@@]4(C)CC[C@@H]1[C@]32OO4 [artemisinin] | 32.2 | 
2 | C=C1C(=O)O[C@@H]2O[C@@]3(C)CC[C@H]4[C@H](C)CC[C@@H]1[C@@]24OO3 [ATT, artemisitene] |  | 6.18
